Source: ChEMBL document CHEMBL1821555, “Identification of a series of 4-[3-(quinolin-2-yl)-1,2,4-oxadiazol-5-yl]piperazinyl ureas as potent smoothened antagonist hedgehog pathway inhibitors” (Bioorg Med Chem Lett, 2011)

Assays:
[1] = Clearance in dog; type: ADME, organism-based, Canis lupus familiaris; details: in vivo
[2] = Half life in dog; type: ADME, organism-based, Canis lupus familiaris; details: in vivo
[3] = Inhibition of cytochrome P450 at 30 uM; type: ADME
Protein smoothened [4] = biological target: T1, Protein smoothened (Homo sapiens, UniProt Q99835); experiment: Inhibition of Bodipy-labelled cyclopamine binding to Smo expressed in COS-1 cells in presence of 20% NHS after 4 to 6 hrs by FACS flow cytometric analysis; type: cell-based
T1 sequence (Q99835 whole entry): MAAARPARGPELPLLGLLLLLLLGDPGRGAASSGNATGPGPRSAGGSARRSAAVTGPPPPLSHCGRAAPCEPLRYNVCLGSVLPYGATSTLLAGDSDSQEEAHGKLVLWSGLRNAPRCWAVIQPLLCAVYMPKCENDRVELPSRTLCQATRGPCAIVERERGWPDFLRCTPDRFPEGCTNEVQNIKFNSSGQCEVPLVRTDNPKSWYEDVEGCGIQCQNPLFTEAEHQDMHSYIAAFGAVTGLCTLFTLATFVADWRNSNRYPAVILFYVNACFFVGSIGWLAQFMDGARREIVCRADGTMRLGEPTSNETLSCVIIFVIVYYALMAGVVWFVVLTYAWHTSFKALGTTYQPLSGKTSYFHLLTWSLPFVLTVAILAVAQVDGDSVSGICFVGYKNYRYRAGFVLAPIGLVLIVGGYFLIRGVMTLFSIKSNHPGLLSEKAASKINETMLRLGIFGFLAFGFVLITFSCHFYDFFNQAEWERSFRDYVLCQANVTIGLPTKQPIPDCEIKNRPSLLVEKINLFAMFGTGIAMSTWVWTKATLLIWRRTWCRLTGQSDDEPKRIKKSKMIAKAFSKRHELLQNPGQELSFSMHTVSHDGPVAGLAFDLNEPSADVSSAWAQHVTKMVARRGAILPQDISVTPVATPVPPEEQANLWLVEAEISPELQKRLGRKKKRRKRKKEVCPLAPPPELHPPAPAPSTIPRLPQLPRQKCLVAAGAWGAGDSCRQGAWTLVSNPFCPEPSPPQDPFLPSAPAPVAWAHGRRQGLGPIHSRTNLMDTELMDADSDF

[5] = Lipophilicity, log D of the compound; type: physicochemical; details: octanol/water
[6] = Intrinsic clearance in human liver microsomes assessed per mg of protein; type: ADME, Microsome
[7] = Intrinsic clearance in rat liver microsomes assessed per mg of protein; type: ADME, Microsome
[8] = Induction of cytochrome P450 at 30 uM; type: ADME
[9] = Clearance in rat; type: ADME, organism-based; details: in vivo
[10] = Terminal half life in rat; type: ADME, organism-based; details: in vivo, read-out: beta t1/2 (converted)
Shh Light II [11] = experiment: Inhibition of Shh signaling in mouse Shh-light2 cells by Gli-dependent firefly luciferase reporter gene assay; type: functional, cell-based
CYP3A4 = CYP3A4 (Homo sapiens, UniProt P08684); experiment: Inhibition of CYP3A4 at 10 uM; type: ADME
Sequence of CYP3A4 (P08684 whole entry): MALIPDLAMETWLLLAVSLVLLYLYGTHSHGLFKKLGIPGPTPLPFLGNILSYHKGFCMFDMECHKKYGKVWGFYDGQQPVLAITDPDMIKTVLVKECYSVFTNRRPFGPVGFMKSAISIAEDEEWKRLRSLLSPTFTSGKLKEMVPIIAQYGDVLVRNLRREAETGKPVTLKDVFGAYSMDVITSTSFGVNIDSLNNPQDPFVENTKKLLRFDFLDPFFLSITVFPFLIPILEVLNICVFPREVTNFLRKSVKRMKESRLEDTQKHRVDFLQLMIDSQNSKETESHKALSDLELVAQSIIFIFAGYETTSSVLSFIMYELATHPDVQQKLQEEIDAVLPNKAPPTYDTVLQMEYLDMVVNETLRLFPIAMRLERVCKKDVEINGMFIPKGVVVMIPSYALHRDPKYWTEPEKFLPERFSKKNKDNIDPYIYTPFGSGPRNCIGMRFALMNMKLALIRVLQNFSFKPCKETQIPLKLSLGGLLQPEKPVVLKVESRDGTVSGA

Protein smoothened [12] = biological target: T1, Protein smoothened; experiment: Displacement of Bodipy-labelled cyclopamine from Smo expressed in COS-1 cells in presence of 2% FBS after 4 to 6 hrs by FACS flow cytometric analysis; type: cell-based
CYP2C9 = CYP2C9 (Homo sapiens, UniProt P11712); experiment: Inhibition of CYP2C9 at 10 uM; type: ADME
Sequence of CYP2C9 (P11712 whole entry): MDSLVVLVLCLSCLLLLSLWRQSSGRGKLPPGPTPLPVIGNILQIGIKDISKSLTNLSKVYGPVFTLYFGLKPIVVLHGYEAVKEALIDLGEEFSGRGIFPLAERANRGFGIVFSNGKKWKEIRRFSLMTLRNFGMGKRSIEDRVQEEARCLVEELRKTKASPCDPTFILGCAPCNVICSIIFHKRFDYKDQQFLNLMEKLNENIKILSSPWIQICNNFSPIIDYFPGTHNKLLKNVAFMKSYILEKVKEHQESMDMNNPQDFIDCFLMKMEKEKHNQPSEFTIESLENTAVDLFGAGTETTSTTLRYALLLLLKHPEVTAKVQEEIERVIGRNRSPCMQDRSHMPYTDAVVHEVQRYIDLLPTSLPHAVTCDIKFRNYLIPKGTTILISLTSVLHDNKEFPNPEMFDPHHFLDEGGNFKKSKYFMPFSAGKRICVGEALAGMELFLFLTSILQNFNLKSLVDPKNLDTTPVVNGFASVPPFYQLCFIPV

Protein smoothened [13] = biological target: T1, Protein smoothened; experiment: Inhibition of Bodipy-labelled cyclopamine binding to Smo expressed in COS-1 cells at 4 uM in presence of 2% FBS after 4 to 6 hrs by FACS flow cytometric analysis; type: cell-based
Protein smoothened [14] = biological target: T1, Protein smoothened; experiment: Inhibition of Bodipy-labelled cyclopamine binding to Smo expressed in COS-1 cells at 10 uM in presence of 2% FBS after 4 to 6 hrs by FACS flow cytometric analysis; type: cell-based
Shh Light II [15] = experiment: Inhibition of Shh signaling in mouse Shh-light2 cells at 10 uM by Gli-dependent firefly luciferase reporter gene assay; type: functional
Shh Light II [16] = experiment: Inhibition of Shh signaling in mouse Shh-light2 cells at 20 uM by Gli-dependent firefly luciferase reporter gene assay; type: functional
[17] = Fraction unbound in human plasma; type: ADME, cell-free
[18] = Fraction unbound in rat plasma; type: ADME, cell-free
[19] = Intrinsic clearance in dog liver microsomes assessed per mg of protein; type: ADME, Canis lupus familiaris, Microsome
[20] = Oral bioavailability in rat; type: ADME, organism-based; details: in vivo
[21] = tested on: Potassium voltage-gated channel subfamily H member 2 (hERG), Homo sapiens; experiment: Inhibition of human ERG at 10 uM
Protein smoothened [22] = biological target: T1, Protein smoothened; experiment: Inhibition of Bodipy-labelled cyclopamine binding to Smo expressed in COS-1 cells at 25 uM in presence of 20% NHS after 4 to 6 hrs by FACS flow cytometric analysis; type: cell-based
Protein smoothened [23] = biological target: T1, Protein smoothened; experiment: Inhibition of Bodipy-labelled cyclopamine binding to Smo expressed in COS-1 cells at 2.5 uM in presence of 2% FBS after 4 to 6 hrs by FACS flow cytometric analysis; type: cell-based
Protein smoothened [24] = biological target: T1, Protein smoothened; experiment: Inhibition of Bodipy-labelled cyclopamine binding to Smo expressed in COS-1 cells at 2 uM in presence of 2% FBS after 4 to 6 hrs by FACS flow cytometric analysis; type: cell-based
Cytochrome P450 3A4 = Cytochrome P450 3A4 (Homo sapiens, UniProt P08684); experiment: Inhibition of CYP3A4; type: ADME
Sequence of Cytochrome P450 3A4 (P08684 whole entry): as the sequence (P08684 whole entry) above

[25] = biological target: Potassium voltage-gated channel subfamily H member 2 (hERG), Homo sapiens; experiment: Inhibition of human ERG
Cytochrome P450 2C9 = Cytochrome P450 2C9 (Homo sapiens, UniProt P11712); experiment: Inhibition of CYP2C9; type: ADME
Sequence of Cytochrome P450 2C9 (P11712 whole entry): as the sequence (P11712 whole entry) above

Cytochrome P450 2D6 = Cytochrome P450 2D6 (Homo sapiens, UniProt P10635); experiment: Inhibition of CYP2D6; type: ADME
Sequence of Cytochrome P450 2D6 (P10635 whole entry): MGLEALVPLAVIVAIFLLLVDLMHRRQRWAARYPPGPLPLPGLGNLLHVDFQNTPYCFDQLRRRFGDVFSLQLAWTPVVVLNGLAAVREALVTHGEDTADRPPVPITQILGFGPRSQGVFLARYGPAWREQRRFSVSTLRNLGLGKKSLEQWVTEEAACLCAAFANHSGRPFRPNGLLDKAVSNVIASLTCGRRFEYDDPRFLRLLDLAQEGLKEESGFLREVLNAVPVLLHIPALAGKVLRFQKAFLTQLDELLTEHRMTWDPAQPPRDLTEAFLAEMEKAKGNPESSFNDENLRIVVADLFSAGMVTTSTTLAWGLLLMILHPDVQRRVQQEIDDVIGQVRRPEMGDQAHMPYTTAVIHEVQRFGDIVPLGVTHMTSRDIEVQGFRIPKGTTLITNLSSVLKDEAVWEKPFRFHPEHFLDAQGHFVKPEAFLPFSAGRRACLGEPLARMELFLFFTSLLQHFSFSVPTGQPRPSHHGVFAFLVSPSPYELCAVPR

Q: What does the source list for O=C(NC1CCC(F)(F)CC1)N1CCN(c2nc(-c3ccc4ccccc4n3)no2)CC1?
A: clearance [1]: 20 mL/min/kg; half-life [2]: 1.1 h; inhibition (INH) [3]: Not Active; IC50 (Protein smoothened [4]): 39 nM; logD [5]: 2.67; microsomal CLint [6]: 8 µL/min/mg; microsomal CLint [7]: 61 µL/min/mg; Activity [8]: Not Active; clearance [9]: 32 mL/min/kg; half-life [10]: 1.3 h; IC50 (Shh Light II [11]): 5 nM

Q: For Cn1c(-c2noc(C3CCN(C(=O)Nc4ccccc4Cl)CC3)n2)nc2ccccc21, which inhibition at 10 µM (CYP3A4) is on record?
A: 35%

Q: And the IC50 (Protein smoothened [4])?
A: 4500 nM

Q: And the logD [5]?
A: 2.85

Q: What about the IC50 (Protein smoothened [12]) of the same molecule?
A: 1000 nM

Q: What about the inhibition at 10 µM (CYP2C9) of the same molecule?
A: 44%

Q: And the microsomal CLint [7]?
A: 174 µL/min/mg

Q: What about the IC50 (Shh Light II [11]) of the same molecule?
A: 430 nM

Q: With COc1ccc(NC(=O)N2CCC(c3nc(-c4ccc5ccccc5n4)no3)CC2)cc1 as the molecule, how does the inhibition (Protein smoothened [13]) read?
A: 68%

Q: What about the IC50 (Protein smoothened [12]) of the same molecule?
A: > 2500 nM

Q: With COc1ccccc1NC(=O)N1CC(c2nc(-c3ccc4ccccc4n3)no2)C1 as the molecule, how does the inhibition (Protein smoothened [14]) read?
A: 39%

Q: And the inhibition at 10 µM (Shh Light II [15])?
A: 28%

Q: With COc1ccccc1NC(=O)N1CCC(c2nnc(-c3ccc4ccccc4n3)o2)CC1 as the molecule, how does the IC50 (Protein smoothened [12]) read?
A: 4700 nM

Q: What about the inhibition at 20 µM (Shh Light II [16]) of the same molecule?
A: 57%

Q: Which results are given for O=C(Nc1ccccc1Cl)N1CCC(c2nc(-c3ccc4ccccc4n3)no2)CC1?
A: inhibition at 10 µM (CYP3A4): 58%; fraction unbound [17]: 0.005; fraction unbound [18]: 0.01; IC50 (Protein smoothened [4]): 3500 nM; logD [5]: 4.25; IC50 (Protein smoothened [12]): 380 nM; inhibition at 10 µM (CYP2C9): 62%; microsomal CLint [6]: 45 µL/min/mg; microsomal CLint [19]: 65 µL/min/mg; bioavailability [20]: 38%; inhibition [21]: 62%; microsomal CLint [7]: > 200 µL/min/mg; clearance [9]: 11 mL/min/kg; IC50 (Shh Light II [11]): 510 nM

Q: What does the source list for O=C(NC1CCC(O)CC1)N1CCC(c2nc(-c3ccc4ccccc4n3)no2)CC1 (stereo not drawn)?
A: IC50 (Protein smoothened [12]): 2500 nM; inhibition (Protein smoothened [22]): 65%; IC50 (Shh Light II [11]): 2700 nM

Q: For COc1ccccc1NC(=O)N1CCC(c2nc(-c3ccc4ccccc4n3)no2)C1 (stereo not drawn), which inhibition (Protein smoothened [14]) is on record?
A: 38%

Q: And the inhibition at 10 µM (Shh Light II [15])?
A: 15%

Q: For Cc1cccnc1-c1noc(C2CCN(C(=O)Nc3ccccc3Cl)CC2)n1, which inhibition (Protein smoothened [23]) is on record?
A: 63%

Q: With COc1ccccc1NC(=O)N1CCC(c2nc(-c3ncccc3C)no2)CC1 as the molecule, how does the inhibition (Protein smoothened [24]) read?
A: 51%

Q: Which IC50 (Cytochrome P450 3A4) does the source give for O=C(Nc1ccccc1Cl)N1CCN(c2nc(-c3ccc4ccccc4n3)no2)CC1 here?
A: > 25000 nM

Q: And the IC50 (Protein smoothened [4])?
A: 700 nM

Q: And the logD [5]?
A: 2.95

Q: And the IC50 (Protein smoothened [12])?
A: 170 nM

Q: And the IC50 [25]?
A: 12000 nM

Q: What about the IC50 (Cytochrome P450 2C9) of the same molecule?
A: > 25000 nM

Q: What about the IC50 (Shh Light II [11]) of the same molecule?
A: 140 nM

Q: And the IC50 (Cytochrome P450 2D6)?
A: > 25000 nM

Q: With O=C(NC1CCCCC1)N1CCN(c2nc(-c3ccc4ccccc4n3)no2)CC1 as the molecule, how does the clearance [1] read?
A: 16 mL/min/kg

Q: And the half-life [2]?
A: 1.4 h

Q: What about the “inhibition (INH)” value [3] of the same molecule?
A: Not Active

Q: What about the IC50 (Protein smoothened [4]) of the same molecule?
A: 180 nM

Q: And the logD [5]?
A: 2.76

Q: And the IC50 (Protein smoothened [12])?
A: 45 nM

Q: What about the IC50 [25] of the same molecule?
A: > 30000 nM

Q: And the microsomal CLint [6]?
A: 60 µL/min/mg

Q: What about the microsomal CLint [19] of the same molecule?
A: 54 µL/min/mg

Q: What about the bioavailability [20] of the same molecule?
A: 24%

Q: What about the microsomal CLint [7] of the same molecule?
A: 189 µL/min/mg

Q: And the Activity [8]?
A: Not Active

Q: What about the clearance [9] of the same molecule?
A: 54 mL/min/kg

Q: And the half-life [10]?
A: 1.1 h

Q: And the IC50 (Shh Light II [11])?
A: 53 nM
